The test system of test [1] is Wickerhamomyces anomalus. The test can be described thus: Antimicrobial activity against Hansenula anomala IFO 0136 after 2 days. As to conditions: IFO 0136, 48 h. Type of test: functional.
The next test has as its system Staphylococcus aureus. The test can be described thus: Antimicrobial activity against Staphylococcus aureus NCTC 8530 after 2 days. Type of test: functional. As to conditions: NCTC 8530, 48 h.
In test [2] the test system is Saccharomyces cerevisiae. The test can be described thus: Antimicrobial activity against Saccharomyces cerevisiae IFO 0203 after 2 days. It is filed as functional. To be noted: IFO 0203, 48 h.
The next test has as its system Sclerotinia. The test can be described thus: Antimicrobial activity against Sclerotinia libertiana SS after 2 days. It is filed as functional. To be noted: 48 h.
For the next test, the system named is Bacillus subtilis. The test can be described thus: Antimicrobial activity against Bacillus subtilis K-49 after 2 days. Type of test: functional. To be noted: K-49, 48 h.
The next test deals with Penicillium crustosum. The test can be described thus: Antimicrobial activity against Penicillium crustosum Thom after 2 days. As to conditions: 48 h. Type of test: functional.
The next test has as its system Escherichia coli. The test can be described thus: Antimicrobial activity against Escherichia coli IFO 3545 after 2 days. It is filed as functional. As to conditions: IFO 3545, 48 h.
For a further test, the system named is Micrococcus luteus. The test can be described thus: Antimicrobial activity against Micrococcus lysodeikticus IFO 3333 after 2 days. Type of test: functional. To be noted: IFO 3333, 48 h.
In test [3] the test system is Cyberlindnera jadinii. The test can be described thus: Antimicrobial activity against Candida utilis ATCC 42402 after 2 days. Type of test: functional. To be noted: for MIC: Williopsis jadinii, ATCC 42402, 48 h.
The test system of test [4] is Rhizopus microsporus var. chinensis. The test can be described thus: Antimicrobial activity against Rhizopus chinensis IFO 4745 after 2 days. It is filed as functional. As to conditions: IFO 4745, 48 h.
The test system of a further test is Aspergillus niger. The test can be described thus: Antimicrobial activity against Aspergillus niger ATCC 6275 after 2 days. As to conditions: ATCC 6275, 48 h. Type of test: functional.
The next test has as its system Proteus vulgaris. The test can be described thus: Antimicrobial activity against Proteus vulgaris IAM 12003 after 2 days. To be noted: IAM 12003, 48 h. Type of test: functional.
Test [5] relates to Schizosaccharomyces pombe. The test can be described thus: Antimicrobial activity against Schizosaccharomyces pombe IFO 0342 after 2 days. It is filed as functional. As to conditions: IFO 0342, 48 h.
The next test deals with Pseudomonas aeruginosa. The test can be described thus: Antimicrobial activity against Pseudomonas aeruginosa IAM 1007 after 2 days. As to conditions: IAM 1007, 48 h. Type of test: functional.
The test system of the next test is Mucor mucedo. The test can be described thus: Antimicrobial activity against Mucor mucedo IFO 7684 after 2 days. Type of test: functional. To be noted: IFO 7684, 48 h.
Test [6] deals with Saccharomyces cerevisiae. The test can be described thus: Antifungal activity against Saccharomyces cerevisiae IFO 0203 assessed as leakage of cellular constituents at 1 to 10 ug/mL by phenol-sulphuric acid reagent method. Type of test: functional, organism-based.
For test [7], the system named is Schizosaccharomyces pombe. The test can be described thus: Antifungal activity against Schizosaccharomyces pombe IFO 0342 in Henneberg medium at pH 7 after 2 days. It is filed as functional. To be noted: IFO 0342, 48 h.
The subject of test [8] is Wickerhamomyces anomalus. The test can be described thus: Antifungal activity against Hansenula anomala IFO 0136 in Henneberg medium at pH 7 after 2 days. Type of test: functional. To be noted: IFO 0136, 48 h.
Test [9] concerns Schizosaccharomyces pombe. The test can be described thus: Antifungal activity against Schizosaccharomyces pombe IFO 0342 in Henneberg medium at pH 5.2 after 2 days. Type of test: functional. To be noted: IFO 0342, 48 h.
Test [10] deals with Wickerhamomyces anomalus. The test can be described thus: Antifungal activity against Hansenula anomala IFO 0136 in Henneberg medium at pH 3.1 after 2 days. Type of test: functional. As to conditions: IFO 0136, 48 h.
Test [11] deals with Saccharomyces cerevisiae. The test can be described thus: Antifungal activity against Saccharomyces cerevisiae IFO 0203 assessed as organelle disorganization at 50 ug/mL after 10 mins by microscopy. Type of test: functional, organism-based.
Test [12] concerns Saccharomyces cerevisiae. The test can be described thus: Antifungal activity against Saccharomyces cerevisiae IFO 0203 assessed as leakage of cellular constituents at 1 to 10 ug/mL by folin reagent method. Type of test: functional, organism-based.
Test [13] concerns Saccharomyces cerevisiae. The test can be described thus: Antifungal activity against Saccharomyces cerevisiae IFO 0203 in Henneberg medium at pH 7 after 2 days. It is filed as functional. To be noted: IFO 0203, 48 h.
Test [14] relates to Saccharomyces cerevisiae. The test can be described thus: Antifungal activity against Saccharomyces cerevisiae IFO 0203 in Henneberg medium at pH 3.1 after 2 days. Type of test: functional. As to conditions: IFO 0203, 48 h.
For test [15], the system named is Saccharomyces cerevisiae. The test can be described thus: Antifungal activity against Saccharomyces cerevisiae IFO 0203 in Malt Wort medium at pH 5 after 2 days. Type of test: functional. To be noted: IFO 0203, 48 h.
For test [16], the system named is Cyberlindnera jadinii. The test can be described thus: Antifungal activity against Candida utilis ATCC 42402 in Henneberg medium at pH 3.1 after 2 days. It is filed as functional. As to conditions: Williopsis jadinii, ATCC 42402, 48 h.
For test [17], the system named is Schizosaccharomyces pombe. The test can be described thus: Antifungal activity against Schizosaccharomyces pombe IFO 0342 in Henneberg medium at pH 3.1 after 2 days. Type of test: functional. As to conditions: IFO 0342, 48 h.
Test [18] deals with Schizosaccharomyces pombe. The test can be described thus: Antifungal activity against Schizosaccharomyces pombe IFO 0342 in Malt Wort medium at pH 5 after 2 days. To be noted: IFO 0342, 48 h. It is filed as functional.
The subject of test [19] is Cyberlindnera jadinii. The test can be described thus: Antifungal activity against Candida utilis ATCC 42402 in Malt Wort medium at pH 5 after 2 days. To be noted: Williopsis jadinii, ATCC 42402, 48 h. It is filed as functional.
Test [20] relates to Cyberlindnera jadinii. The test can be described thus: Antifungal activity against Candida utilis ATCC 42402 in Henneberg medium at pH 5.2 after 2 days. To be noted: Williopsis jadinii, ATCC 42402, 48 h. It is filed as functional.
Test [21] deals with Wickerhamomyces anomalus. The test can be described thus: Antifungal activity against Hansenula anomala IFO 0136 in Henneberg medium at pH 5.2 after 2 days. It is filed as functional. As to conditions: IFO 0136, 48 h.
In test [22] the test system is Cyberlindnera jadinii. The test can be described thus: Antifungal activity against Candida utilis ATCC 42402 in Henneberg medium at pH 7 after 2 days. To be noted: Williopsis jadinii, ATCC 42402, 48 h. Type of test: functional.
For test [23], the system named is Wickerhamomyces anomalus. The test can be described thus: Antifungal activity against Hansenula anomala IFO 0136 in Malt Wort medium at pH 5 after 2 days. It is filed as functional. As to conditions: IFO 0136, 48 h.
Test [24] concerns Saccharomyces cerevisiae. The test can be described thus: Antifungal activity against Saccharomyces cerevisiae IFO 0203 assessed as fetal loss of cellular constituents at 50 ug/mL after 10 mins by microscopy. Type of test: functional, organism-based.
Test [25] concerns Saccharomyces cerevisiae. The test can be described thus: Antifungal activity against Saccharomyces cerevisiae IFO 0203 in Henneberg medium at pH 5.2 after 2 days. Type of test: functional. As to conditions: IFO 0203, 48 h.

In brackets after ≈: the same amount, converted by molar mass. Activity calls are given as the source filed them. The rule behind the calls is not given here. Starred links: 1 amine or outer side, 2 acyl side, 3 side chain; linkers in the order of their positions; H or OH if unused. Positions of bridges follow the written chain, without caps; N, C: chain ends. Non-standard residues stand in square brackets, D forms with d. Residues, ends and D or L forms follow the SMILES beside them. Chains are numbered I, II in the order given. Actinocin(9to1) = Cc1c2oc3c(C)ccc(C(=O)[*:1])c3nc-2c(C(=O)[*:2])c(N)c1=O; NMeV = CN[C@H](C(=O)O)C(C)C; Sar = CNCC(=O)O

For orientation: MIC means the lowest concentration found to suppress growth. Low values mean a more susceptible organism, high ones a less susceptible organism.

`C=C1[C@@H](C)CC[C@@]2(C)[C@H]1CC=C(C=O)[C@]2(O)C=O`: the MIC with Wickerhamomyces anomalus [1] is 25 µg/mL (≈ 101 µM); against Staphylococcus aureus, above 100 µg/mL; against Saccharomyces cerevisiae [2], 1.56 µg/mL (≈ 6.28 µM); against Sclerotinia, 3.13 µg/mL (≈ 12.6 µM); with Bacillus subtilis, above 100 µg/mL; against Penicillium crustosum it was 50 µg/mL (≈ 201 µM). Besides, the MIC with Escherichia coli is above 100 µg/mL; against Micrococcus luteus it was above 100 µg/mL; against Cyberlindnera jadinii [3], 3.13 µg/mL (≈ 12.6 µM); in [4], 100 µg/mL (≈ 403 µM); in the test with Aspergillus niger, 50 µg/mL (≈ 201 µM); in the test with Proteus vulgaris it was above 100 µg/mL. Further, the values for the MIC (in [5]; with Pseudomonas aeruginosa; with Mucor mucedo) were 25 µg/mL (≈ 101 µM), above 100 µg/mL and 25 µg/mL (≈ 101 µM), respectively.
For the compound `Cc1c2oc3c(C)ccc(C(=O)N[C@@H]4C(=O)N[C@H](C(C)C)C(=O)N5CCC[C@H]5C(=O)N(C)CC(=O)N(C)[C@@H](C(C)C)C(=O)O[C@@H]4C)c3nc-2c(C(=O)N[C@@H]2C(=O)N[C@H](C(C)C)C(=O)N3CCC[C@H]3C(=O)N(C)CC(=O)N(C)[C@@H](C(C)C)C(=O)O[C@@H]2C)c(N)c1=O` (I: T[dV]P[Sar][NMeV] / II: T[dV]P[Sar][NMeV]; ester I:1-I:C, II:1-II:C; linker I:N-II:N via Actinocin(9to1)), the outcome in the test on Cyberlindnera jadinii [3] was inactive.
`CC1(C)CCC[C@]2(C)[C@@H](C=O)C(C=O)=CC[C@@H]12` [POLYGODIAL]: the outcome in the test with Saccharomyces cerevisiae [6], in the test on Saccharomyces cerevisiae [11], in the test on Saccharomyces cerevisiae [12] and in the test with Saccharomyces cerevisiae [24] was Active. For the same compound, the minimum inhibitory concentration (MIC) against Wickerhamomyces anomalus [1] was 1.56 µg/mL (≈ 6.66 µM); against Staphylococcus aureus, above 100 µg/mL; in test [7], above 25 µg/mL; against Saccharomyces cerevisiae [2] it was 0.78 µg/mL (≈ 3.33 µM); against Sclerotinia, 1.56 µg/mL (≈ 6.66 µM); in the test with Bacillus subtilis, above 100 µg/mL. Moreover, the MIC in the test on Wickerhamomyces anomalus [8] was above 25 µg/mL; against Penicillium crustosum it was 25 µg/mL (≈ 107 µM); in test [9], 25 µg/mL (≈ 107 µM); in the test with Escherichia coli, above 100 µg/mL; in the test with Micrococcus luteus, above 100 µg/mL; in the test on Wickerhamomyces anomalus [10], 1.56 µg/mL (≈ 6.66 µM). For the same compound, the MIC was 1.56 µg/mL (≈ 6.66 µM) against Cyberlindnera jadinii [3]; above 25 µg/mL in the test on Saccharomyces cerevisiae [13]; 0.2 µg/mL (≈ 0.853 µM) against Saccharomyces cerevisiae [14]; 0.78 µg/mL (≈ 3.33 µM) in the test on Saccharomyces cerevisiae [15]; 0.78 µg/mL (≈ 3.33 µM) in the test with Cyberlindnera jadinii [16]; 6.25 µg/mL (≈ 26.7 µM) in test [17]. Besides, the MIC in test [18] was 6.25 µg/mL (≈ 26.7 µM); in the test with Cyberlindnera jadinii [19], 1.56 µg/mL (≈ 6.66 µM); in the test with Cyberlindnera jadinii [20] it was 3.13 µg/mL (≈ 13.4 µM); in test [4], 12.5 µg/mL (≈ 53.3 µM); against Aspergillus niger, 25 µg/mL (≈ 107 µM); against Proteus vulgaris it was above 100 µg/mL. The minimal inhibitory concentration (MIC) in the test with Wickerhamomyces anomalus [21] was 6.25 µg/mL (≈ 26.7 µM); in test [5], 6.25 µg/mL (≈ 26.7 µM); in the test on Cyberlindnera jadinii [22], above 25 µg/mL; against Wickerhamomyces anomalus [23], 1.56 µg/mL (≈ 6.66 µM); against Pseudomonas aeruginosa, above 100 µg/mL; in the test with Saccharomyces cerevisiae [25] it was 1.56 µg/mL (≈ 6.66 µM). The compound also showed an MIC with Mucor mucedo of 6.25 µg/mL (≈ 26.7 µM).
Consider `CC1(C)CCC[C@@]2(C)[C@H]1CC=C(C=O)[C@]2(O)C=O` [WARBURGANAL], for which the minimum inhibitory concentration (MIC) is 12.5 µg/mL (≈ 49.9 µM) against Wickerhamomyces anomalus [1]; above 100 µg/mL in the test on Staphylococcus aureus; 3.13 µg/mL (≈ 12.5 µM) against Saccharomyces cerevisiae [2]; 3.13 µg/mL (≈ 12.5 µM) in the test on Sclerotinia; above 100 µg/mL in the test on Bacillus subtilis; 50 µg/mL (≈ 200 µM) against Penicillium crustosum. Moreover, the MIC in the test on Escherichia coli was above 100 µg/mL; against Micrococcus luteus it was above 100 µg/mL; in the test with Cyberlindnera jadinii [3] it was 3.13 µg/mL (≈ 12.5 µM); in test [4] it was 100 µg/mL (≈ 399 µM); in the test with Aspergillus niger it was 50 µg/mL (≈ 200 µM); in the test with Proteus vulgaris, above 100 µg/mL. Further, the MIC was 12.5 µg/mL (≈ 49.9 µM) in test [5], above 100 µg/mL against Pseudomonas aeruginosa and 25 µg/mL (≈ 99.9 µM) in the test with Mucor mucedo.

Values taken from ChEMBL document CHEMBL1150741, “Polygodial, an antifungal potentiator” (1988).
